One may read the CC50 as the concentration that lowers cell viability or growth by half. Read a high CC50 as better tolerance by the cells.

No end group written: not given here. Where only a bound is given, the exact number is not on record here.

The record followed here is patent US20050209157A1, “Short bioactive peptides and methods for their use” (priority 2001, published 2005).

For series [1], the system named is Pseudomonas aeruginosa ATCC 9027. Briefly: Antimicrobial assay I, MIC by OD measurement. The class given is cell-based. The following applies: 37° C. for 24 hours, absorbance 620 nm.
Series [2] deals with Staphylococcus aureus ATCC 6538. Briefly: Antimicrobial assay I, MIC by OD measurement. The class given is cell-based. The conditions noted are these: 37° C. for 24 hours, absorbance 620 nm.
The test system of series [3] is yeast (Saccharomyces cerevisiae). Kind of series: Antimicrobial assay I, yeast assay in RPMI 1640. In kind it is cell-based. The following applies: RPMI 1640 media.
Another series concerns BMKC. Kind of series: Anti-cancer assay, MTT, LD50. The conditions noted are these: BMKC cloned melanoma line, 24 hours with peptide. The class given is cell-based. An excerpt:
(§1) Numbers are LD50 values (μg/mL).

The test system of a further series is H1299. Kind of series: Anti-cancer assay, MTT, LD50. The class given is cell-based. The conditions noted are these: 24 hours with peptide, lung large cell carcinoma.
Text: as §1

For a further series, the system named is HeLaS3. Briefly: Anti-cancer assay, MTT, LD50. In kind it is cell-based. The following applies: 24 hours with peptide, cervical carcinoma.
Text: as §1

Another series has as its system MCF7. Briefly: Anti-cancer assay, MTT, LD50. The class given is cell-based. The following applies: MCF7 breast adenocarcinoma line, MTT, 24 hours with peptide.
Text: as §1

Another series has as its system PC3. Kind of series: Anti-cancer assay, MTT, LD50. The class given is cell-based. The following applies: 24 hours with peptide, prostate adenocarcinoma.
Text: as §1

Another series concerns SW480. Kind of series: Anti-cancer assay, MTT, LD50. The class given is cell-based. The conditions noted are these: SW480 colon adenocarcinoma line, 24 hours with peptide.
Text: as §1

In series [4] the test system is human red blood cells (RBC). Briefly: in vitro. The class given is cell-based. The following applies: hemolytic assay, concentration at 50% hemolysis, 1 hour at 37° C.
A further series concerns WI38. The following applies: MTT, 24 hours with peptide; normal fibroblast line.
The next series in a line: in vitro. The following applies: human, WI38 normal lung fibroblast cells, LD50 WI38, WI38 normal lung fibroblast line, MTT, 24 hours with peptide.

On to FAKLA-NH2 [P128, FAKLA-NH2], for which, in [1], the “paerug9027 (MIC)” value worked out at 100 µg/mL. Besides, the “staph6538 (MIC)” value in [2] was “> (> indicates greater than 200 μg/mL)”. Moreover, the “yeast (MIC or MFC)” value in [3] amounted to 200 µg/mL. Besides, the “LD50 BMKC” value with BMKC worked out at 330 µg/mL. In addition, the “H1299 LD50” value in the series with H1299 was “> (> indicates greater than 1000)”. Also, the “HeLaS3 LD50” value in the series on HeLaS3 turned out to be 700 µg/mL. The “LD50 MCF7” value in the series on MCF7 was found to be 500 µg/mL. Moreover, the “PC3 LD50” value in the series with PC3 is on record as “> (> indicates greater than 1000)”. Moreover, the “LD50 SW480” value in the series with SW480 worked out at 530 µg/mL. The LD50 entry in [4] is given as “> (> indicates greater than 1000)”. In addition, in the series on WI38, the “WI38 LD50” value came out at 500 µg/mL. In addition, the CC50 at 24 h in “in vitro” stood at 500 µg/mL.
Consider FALALKLKKL-NH2 [P181], for which the “paerug9027 (MIC)” value in series [1] was found to be 200 µg/mL. Besides, in series [2], the “staph6538 (MIC)” value was found to be 100 µg/mL. Also, the “yeast (MIC or MFC)” value in [3] stood at 100 µg/mL. The “LD50 BMKC” value in the series on BMKC came to 830 µg/mL. In addition, the “H1299 LD50” value in the series with H1299 is on record as “> (> indicates greater than 1000)”. Further, the “HeLaS3 LD50” value with HeLaS3 is listed as “> (> indicates greater than 1000)”. Moreover, in the series with MCF7, the “LD50 MCF7” value was determined as 550 µg/mL. Besides, in the series with PC3, the “PC3 LD50” value is reported as “> (> indicates greater than 1000)”. In addition, the “LD50 SW480” value with SW480 stood at 870 µg/mL. Also, the LD50 result in [4] was “> (> indicates greater than 1000)”. Moreover, the “WI38 LD50” value in the series on WI38 stood at 500 µg/mL. In “in vitro”, it took 500 µg/mL to reach half-maximal cytotoxicity (CC50 at 24 h).
Take VALALKALKKL-NH2 [P180]: the “paerug9027 (MIC)” value in series [1] is recorded as “> (> indicates greater than 200 μg/mL)”. The “staph6538 (MIC)” value in series [2] was 200 µg/mL. The “yeast (MIC or MFC)” value in series [3] is on record as “> (> indicates greater than 200 μg/mL)”. Further, the “LD50 BMKC” value in the series with BMKC came out at 770 µg/mL. The “H1299 LD50” value in the series on H1299 is listed as “> (> indicates greater than 1000)”. In addition, the “HeLaS3 LD50” value with HeLaS3 came to 760 µg/mL. The “LD50 MCF7” value with MCF7 was determined as 950 µg/mL. Further, in the series on PC3, the “PC3 LD50” value is recorded as “> (> indicates greater than 1000)”. For the same substance, the “LD50 SW480” value in the series with SW480 was determined as 600 µg/mL. In series [4], the LD50 entry was “> (> indicates greater than 1000)”. The “WI38 LD50” value in the series with WI38 turned out to be 940 µg/mL. In “in vitro”, this substance displayed a CC50 at 24 h of 940 µg/mL.
“FAKLLFKALKKAL-NH2 [P112, FAKLLFKALKKAL-NH2]”: the “paerug9027 (MIC)” value in series [1] was found to be 200 µg/mL. Also, the “staph6538 (MIC)” value in series [2] came to 50 µg/mL. For the same substance, the “yeast (MIC or MFC)” value in series [3] is 100 µg/mL. Besides, the “LD50 BMKC” value in the series with BMKC stood at 445 µg/mL. For the same substance, the “H1299 LD50” value in the series on H1299 is 470 µg/mL. Also, the “HeLaS3 LD50” value in the series with HeLaS3 amounted to 660 µg/mL. Further, the “LD50 MCF7” value with MCF7 is 500 µg/mL. Besides, the “PC3 LD50” value in the series with PC3 turned out to be 640 µg/mL. Further, the “LD50 SW480” value in the series on SW480 was 800 µg/mL. The LD50 result in [4] was “> (> indicates greater than 1000)”. Besides, the “WI38 LD50” value in the series on WI38 amounted to 420 µg/mL. This substance also had a CC50 at 24 h in “in vitro” of 420 µg/mL.
With “FAKKLAKKLAKAAL-NH2 [P76, FAKKLAKKLAKAAL-NH2]”, the “paerug9027 (MIC)” value in series [1] came to 100 µg/mL. The “staph6538 (MIC)” value in series [2] amounted to 10 µg/mL. In addition, the “yeast (MIC or MFC)” value in series [3] came out at 200 µg/mL. In addition, the “LD50 BMKC” value in the series with BMKC was determined as 750 µg/mL. Further, in the series with H1299, the “H1299 LD50” value came out at 860 µg/mL. The “HeLaS3 LD50” value in the series with HeLaS3 was 380 µg/mL. Besides, in the series with MCF7, the “LD50 MCF7” value was determined as 970 µg/mL. The “PC3 LD50” value with PC3 is 675 µg/mL. In addition, the “LD50 SW480” value in the series with SW480 is 400 µg/mL. In [4], the LD50 result is “> (> indicates greater than 1000)”. Also, in the series on WI38, the “WI38 LD50” value is 445 µg/mL. In addition, the CC50 at 24 h in “in vitro” turned out to be 445 µg/mL.
Consider “FAKLFAKLAKKFAL-NH2 [P121, FAKLFAKLAKKFAL-NH2]”, for which the “paerug9027 (MIC)” value in series [1] is “> (> indicates greater than 200 μg/mL)”. Further, in [2], the “staph6538 (MIC)” value was found to be 50 µg/mL. In series [3], the “yeast (MIC or MFC)” value came out at 100 µg/mL. The “LD50 BMKC” value with BMKC is 670 µg/mL. The “H1299 LD50” value with H1299 was 460 µg/mL. In addition, the “HeLaS3 LD50” value in the series on HeLaS3 is 830 µg/mL. Moreover, the “LD50 MCF7” value in the series with MCF7 came to 400 µg/mL. Further, the “PC3 LD50” value in the series with PC3 is “> (> indicates greater than 1000)”. Besides, the “LD50 SW480” value with SW480 amounted to 800 µg/mL. Also, the LD50 result in series [4] was “> (> indicates greater than 1000)”. The “WI38 LD50” value with WI38 was found to be 625 µg/mL. This substance also registered a half-maximal cytotoxic concentration (CC50) at 24 h in the series “in vitro” of 625 µg/mL.
